≈ marks a conversion by molar mass, not a printed value.
How the values were obtained:
[1] = test system: S. aureus 880 (BR-VRSA), NR-49120; experiment: MIC assay; assay type: cell-based, Staphylococcus aureus; settings: S. aureus 880, NR-49120 VRSA
Experimental: (§1) The antibacterial activity of the compounds was tested against a panel of bacteria, including Gram-positive bacteria (S. aureus ATCC29213, S. aureus USA300, S. aureus LIM-2, NR-45881, S. aureus HIP13419, NR-46413, E. faecium E155, E. faecium E7314, E. faecium E980, E. faecalis E1246, E. faecalis E7406 and S. pneumonia 153). The antibacterial activity of the compounds was further tested against S. aureus NY-155, NR-46236, S. aureus HIP12864, NR-46074, S. aureus 880 (BR-VRSA), NR-49120, E. faecalis E1246, E. faecalis E7604, as well as some Gram-negative bacteria (Escherichia coli and Klebsiella pneumoniae). Minimum inhibitory concentrations (MICs) in μg/mL were performed according to the CLSI guidelines. From glycerol stocks, bacterial strains were cultured on blood agar plates and incubated at 37° C. for 18 h. A single colony was transferred to tryptic soy broth (TSB) with 0.002% polysorbate 80 (p80). For the Enterococcus, VISA and VRSA strains, the cultures were grown at 37° C. until the optical density of the suspension reached a level equivalent to the 0.5 McFarland standard. The bacterial suspensions were diluted in TSB with 0.002% p80 to reach a bacterial cell density of 10^6 CFU/mL. In case of the other (vancomycin-sensitive) S. aureus strains, the direct colony suspension method was used. For these strains, after transfer of the colonies to TSB with 0.002% p80, they were immediately diluted to 10^6 CFU/mL, instead of incubated prior to this dilution. In the case of S. pneumonia, direct colony suspension was used by immediately suspending multiple colonies from fresh blood agar plates in TSB+0.002% p80 to an OD600 of 0.5 and subsequent dilution to 10^6 CFU mL^−1 in TSB+0.002% p80+5% lysed horse blood. Antibiotic dilutions for this strains were also made in TSB+0.002% p80+5% lysed horse blood. Both agar and microplates containing S. pneumonia were incubated at 37° C. with 5% CO2 for 24 h with constant shaking (600 rpm). […] The cultures were grown to exponential phase (OD600=0.5) at 37° C. […] In polypropylene 96-well microtiter plates, test compounds were added in biological triplicates and serial diluted 2-fold by transfer and mixing from one well to the next to achieve a final volume of 50 μL per well. An equal volume of bacterial suspension (10^6 CFU mL^−1) was added to the wells. The plates were sealed with breathable membranes and incubated at 37° C. for 24 h with constant shaking (600 rpm). In polypropylene microtiter plates, 100 μL of the test compounds was added to the first row in biological triplicates, and 50 μL of media was added to the other wells. The compounds were subjected to serial dilution by transfer and mixing of 50 μL from one well to the next. Subsequently, 50 μL of bacterial suspension (10^6 CFU/mL) was added to the wells. The plates were sealed with breathable membranes and incubated at 37° C. for 24 h with constant shaking (600 rpm). Positive growth control consisted of wells with bacterial suspension and without antibiotic. Negative growth control consisted of solely media without bacterial suspension or antibiotic. The MICs were determined from the median of a minimum of triplicates.

S. aureus ATCC29213 = experiment: MIC assay; assay type: cell-based, Staphylococcus aureus; settings: S. aureus ATCC29213 MSSA
Experimental: as §1

[2] = test system: S. aureus HIP12864, NR-46074; experiment: MIC assay; assay type: cell-based, Staphylococcus aureus; settings: S. aureus HIP12864, NR-46074 VISA
Experimental: as §1

[3] = test system: S. aureus LIM-2, NR-25881; experiment: MIC assay; assay type: cell-based, Staphylococcus aureus; settings: S. aureus LIM-2, NR-25881 VISA
Experimental: as §1

[4] = test system: S. aureus NY-155, NR-46236; experiment: MIC assay; assay type: cell-based, Staphylococcus aureus; settings: S. aureus NY-155, NR-46236 MRSA
Experimental: as §1

[5] = test system: S. aureus HIP13419, NR-46413; experiment: microbe, parasite or virus in culture; assay type: cell-based, Staphylococcus aureus; settings: S. aureus HIP13419, NR-46413 VRSA
Experimental: as §1

S. aureus USA300 = experiment: microbe, parasite or virus in culture; assay type: cell-based, Staphylococcus aureus
Experimental: as §1

E. faecium E980 = experiment: MIC assay; assay type: cell-based, Enterococcus faecium; settings: E. faecium E980 VSE
Experimental: as §1

E. faecium E155 = experiment: microbe, parasite or virus in culture; assay type: cell-based, Enterococcus faecium; settings: E. faecium E155 VRE (VanA)
Experimental: as §1

E. faecium E7314 = experiment: microbe, parasite or virus in culture; assay type: cell-based, Enterococcus faecium; settings: E. faecium E7314 VRE (VanB)
Experimental: as §1

E. faecalis E1246 = experiment: MIC assay; assay type: cell-based, Enterococcus faecalis
Experimental: as §1

E. faecalis E7406 = experiment: microbe, parasite or virus in culture; assay type: cell-based, Enterococcus faecalis; settings: E. faecalis E7406 VRE (VanB)
Experimental: as §1

E. faecalis E7604 = experiment: microbe, parasite or virus in culture; assay type: cell-based, Enterococcus faecalis; settings: E. faecalis E7604 VRE (vanB)
Experimental: as §1

S. pneumoniae 153 = experiment: MIC assay; assay type: cell-based; settings: S. pneumoniae 153; TSB+0.002% p80+5% lysed horse blood
Experimental: as §1

MRSA USA300 = experiment: MIC assay in the presence of sheep serum; assay type: cell-based, Staphylococcus aureus; settings: MRSA USA300, TSB + 0.002% p80 + 50% sheep serum
Experimental: as §1
The activity of the compounds was further assessed against MRSA USA300 strain in the presence of sheep) serum in another MIC assay. The cultures that grew in the presence of serum used TSB+0.002% P80+50% sheep serum as growth media, as opposed to normal MICs done in only TSB+0.002% P80.

[6] = E. faecalis E1246 VRE (VanA), Table 7
[7] = E. faecalis E1246 VRE (vanA), Table 9

Compound | MIC [1] [µg/mL] | MIC (S. aureus ATCC29213) [µg/mL] | MIC [2] [µg/mL] | MIC [3] [µg/mL] | MIC [4] [µg/mL] | MIC [5] [µg/mL] | MIC (S. aureus USA300; MRSA USA300, TSB + 0.002% p80) [µg/mL] | MIC (S. aureus USA300; S. aureus USA300 MRSA) [µg/mL] | MIC (E. faecium E980) [µg/mL] | MIC (E. faecium E155) [µg/mL] | MIC (E. faecium E7314) [µg/mL] | MIC (E. faecalis E1246; [6]) [µg/mL] | MIC (E. faecalis E1246; [7]) [µg/mL] | MIC (E. faecalis E7406) [µg/mL] | MIC (E. faecalis E7604) [µg/mL] | MIC (S. pneumoniae 153) [µg/mL] | MIC (MRSA USA300) [µg/mL]
CCCCCCNC(N)=Nc1ccc(CNC2(C)CC(OC3C(Oc4c5cc6cc4Oc4ccc(cc4Cl)C(O)C4NC(=O)C(NC(=O)C6NC(=O)C(CC(N)=O)NC(=O)C(NC(=O)C(CC(C)C)NC)C(O)c6ccc(c(Cl)c6)O5)c5ccc(O)c(c5)-c5c(O)cc(O)cc5C(C(=O)O)NC4=O)OC(CO)C(O)C3O)OC(C)C2O)cc1 (centres unmarked) [Compound 4] | 16 (≈ 9.52 µM) | 0.0625 (≈ 0.0372 µM) | 0.5 (≈ 0.298 µM) | 0.25 (≈ 0.149 µM) | 0.063 (≈ 0.0375 µM) | 4 (≈ 2.38 µM) | 0.063 | 0.0625 (≈ 0.0372 µM) | 0.03125 (≈ 0.0186 µM) | 8 (≈ 4.76 µM) | 0.03125 (≈ 0.0186 µM) | 32 (≈ 19 µM) | 32 (≈ 19 µM) | 0.25 (≈ 0.149 µM) | 0.25 (≈ 0.149 µM) | 0.016 (≈ 0.00952 µM) | 0.063
CCCCCCCCCCNC(N)=Nc1ccc(CN[C@@]2(C)C[C@H](O[C@H]3[C@H](Oc4c5cc6cc4Oc4ccc(cc4Cl)[C@@H](O)[C@@H](NC(=O)[C@@H](CC(C)C)NC)C(=O)N[C@@H](CC(N)=O)C(=O)N[C@H]6C(=O)N[C@H]4C(=O)N[C@H](C(=O)N[C@H](C(=O)O)c6cc(O)cc(O)c6-c6cc4ccc6O)[C@H](O)c4ccc(c(Cl)c4)O5)O[C@H](CO)[C@@H](O)[C@@H]3O)O[C@@H](C)[C@H]2O)cc1 [Compound 8] | 0.25 (≈ 0.144 µM) | 0.01562 (≈ 0.00899 µM) | 0.062 (≈ 0.0357 µM) | 0.016 (≈ 0.00921 µM) | ≤0.008 | 0.063 (≈ 0.0363 µM) | 0.063 | 0.0625 (≈ 0.036 µM) | 0.01562 (≈ 0.00899 µM) | 0.25 (≈ 0.144 µM) | ≤0.007812 | 1 (≈ 0.576 µM) | 1 (≈ 0.576 µM) | ≤0.007812 | ≤0.008 | ≤0.008 | 0.125
CCCCCCCCCCCCNC(N)=Nc1ccc(CN[C@@]2(C)C[C@H](O[C@H]3[C@H](Oc4c5cc6cc4Oc4ccc(cc4Cl)[C@@H](O)[C@@H](NC(=O)[C@@H](CC(C)C)NC)C(=O)N[C@@H](CC(N)=O)C(=O)N[C@H]6C(=O)N[C@H]4C(=O)N[C@H](C(=O)N[C@H](C(=O)O)c6cc(O)cc(O)c6-c6cc4ccc6O)[C@H](O)c4ccc(c(Cl)c4)O5)O[C@H](CO)[C@@H](O)[C@@H]3O)O[C@@H](C)[C@H]2O)cc1 [Compound 9] | 0.25 (≈ 0.142 µM) | 0.125 (≈ 0.0708 µM) | 0.25 (≈ 0.142 µM) | 0.5 (≈ 0.283 µM) | 0.5 (≈ 0.283 µM) | 0.125 (≈ 0.0708 µM) | 0.5 | 0.5 (≈ 0.283 µM) | 0.125 (≈ 0.0708 µM) | 0.125 (≈ 0.0708 µM) | 0.03125 (≈ 0.0177 µM) | 1 (≈ 0.567 µM) | 1 (≈ 0.567 µM) | 0.0625 (≈ 0.0354 µM) | 0.063 (≈ 0.0357 µM) | ≤0.008 | 1
CCCCCCCCCCCCCCNC(N)=Nc1ccc(CN[C@@]2(C)C[C@H](O[C@H]3[C@H](Oc4c5cc6cc4Oc4ccc(cc4Cl)[C@@H](O)[C@@H](NC(=O)[C@@H](CC(C)C)NC)C(=O)N[C@@H](CC(N)=O)C(=O)N[C@H]6C(=O)N[C@H]4C(=O)N[C@H](C(=O)N[C@H](C(=O)O)c6cc(O)cc(O)c6-c6cc4ccc6O)[C@H](O)c4ccc(c(Cl)c4)O5)O[C@H](CO)[C@@H](O)[C@@H]3O)O[C@@H](C)[C@H]2O)cc1 [Compound 10] | 1 (≈ 0.558 µM) | 2 (≈ 1.12 µM) | 2 (≈ 1.12 µM) | 4 (≈ 2.23 µM) | 8 (≈ 4.46 µM) | 0.5 (≈ 0.279 µM) | 4 | 4 (≈ 2.23 µM) | 0.5 (≈ 0.279 µM) | 0.5 (≈ 0.279 µM) | 0.5 (≈ 0.279 µM) | 2 (≈ 1.12 µM) | 2 (≈ 1.12 µM) | 1 (≈ 0.558 µM) | 1 (≈ 0.558 µM) | 0.031 (≈ 0.0173 µM) | 16
CCCCN(CCCC)C(N)=Nc1ccc(CN[C@@]2(C)C[C@H](O[C@H]3[C@H](Oc4c5cc6cc4Oc4ccc(cc4Cl)[C@@H](O)[C@@H](NC(=O)[C@@H](CC(C)C)NC)C(=O)N[C@@H](CC(N)=O)C(=O)N[C@H]6C(=O)N[C@H]4C(=O)N[C@H](C(=O)N[C@H](C(=O)O)c6cc(O)cc(O)c6-c6cc4ccc6O)[C@H](O)c4ccc(c(Cl)c4)O5)O[C@H](CO)[C@@H](O)[C@@H]3O)O[C@@H](C)[C@H]2O)cc1 [Compound 11] | 64 (≈ 37.5 µM) | 0.125 (≈ 0.0732 µM) | 1 (≈ 0.585 µM) | 0.5 (≈ 0.293 µM) | 0.063 (≈ 0.0369 µM) | 16 (≈ 9.36 µM) | 0.125 | 0.125 (≈ 0.0732 µM) | 0.0625 (≈ 0.0366 µM) | 32 (≈ 18.7 µM) | 0.5 (≈ 0.293 µM) | >128 | >128 | 8 (≈ 4.68 µM) | 8 (≈ 4.68 µM) | 0.063 (≈ 0.0369 µM) | 0.063
Teicoplanin [reference compound] | 16 | 0.5 | 4 | 16 | 0.5 | 32 | 0.5 | 0.5 | 0.5 | – | 0.25 | >128 | >128 | 0.125 | 0.125 | 0.031 | 2
